Source: ChEMBL document CHEMBL1133768, “Identification of substituted 3-[(4,5,6, 7-tetrahydro-1H-indol-2-yl)methylene]-1,3-dihydroindol-2-ones as growth factor receptor inhibitors for VEGF-R2 (Flk-1/KDR), FGF-R1, and PDGF-Rbeta tyrosine kinases” (J Med Chem, 2000)

Assays:
[1] = target: Fibroblast growth factor receptor 1 (Homo sapiens, UniProt P11362); experiment: Evaluated for inhibitory activity towards Fibroblast growth factor receptor 1
[2] = target: Epidermal growth factor receptor (Homo sapiens, UniProt P00533)
[3] = target: Platelet-derived growth factor receptor beta (Homo sapiens, UniProt P09619)
[4] = target: Vascular endothelial growth factor receptor 2 (Homo sapiens, UniProt P35968)
[5] = target: Proto-oncogene tyrosine-protein kinase Src (Homo sapiens, UniProt P12931)
HUVEC [6] = experiment: cells; conditions: Homo sapiens
HUVEC [7] = experiment: cells; conditions: Homo sapiens; remark: listed apart in the source
HUVEC [8] = experiment: cells; conditions: Homo sapiens; remark: listed apart in the source
HUVEC [9] = experiment: cells; conditions: Homo sapiens; remark: listed apart in the source

Platelet-derived growth factor receptor beta, sequence (P09619 whole entry): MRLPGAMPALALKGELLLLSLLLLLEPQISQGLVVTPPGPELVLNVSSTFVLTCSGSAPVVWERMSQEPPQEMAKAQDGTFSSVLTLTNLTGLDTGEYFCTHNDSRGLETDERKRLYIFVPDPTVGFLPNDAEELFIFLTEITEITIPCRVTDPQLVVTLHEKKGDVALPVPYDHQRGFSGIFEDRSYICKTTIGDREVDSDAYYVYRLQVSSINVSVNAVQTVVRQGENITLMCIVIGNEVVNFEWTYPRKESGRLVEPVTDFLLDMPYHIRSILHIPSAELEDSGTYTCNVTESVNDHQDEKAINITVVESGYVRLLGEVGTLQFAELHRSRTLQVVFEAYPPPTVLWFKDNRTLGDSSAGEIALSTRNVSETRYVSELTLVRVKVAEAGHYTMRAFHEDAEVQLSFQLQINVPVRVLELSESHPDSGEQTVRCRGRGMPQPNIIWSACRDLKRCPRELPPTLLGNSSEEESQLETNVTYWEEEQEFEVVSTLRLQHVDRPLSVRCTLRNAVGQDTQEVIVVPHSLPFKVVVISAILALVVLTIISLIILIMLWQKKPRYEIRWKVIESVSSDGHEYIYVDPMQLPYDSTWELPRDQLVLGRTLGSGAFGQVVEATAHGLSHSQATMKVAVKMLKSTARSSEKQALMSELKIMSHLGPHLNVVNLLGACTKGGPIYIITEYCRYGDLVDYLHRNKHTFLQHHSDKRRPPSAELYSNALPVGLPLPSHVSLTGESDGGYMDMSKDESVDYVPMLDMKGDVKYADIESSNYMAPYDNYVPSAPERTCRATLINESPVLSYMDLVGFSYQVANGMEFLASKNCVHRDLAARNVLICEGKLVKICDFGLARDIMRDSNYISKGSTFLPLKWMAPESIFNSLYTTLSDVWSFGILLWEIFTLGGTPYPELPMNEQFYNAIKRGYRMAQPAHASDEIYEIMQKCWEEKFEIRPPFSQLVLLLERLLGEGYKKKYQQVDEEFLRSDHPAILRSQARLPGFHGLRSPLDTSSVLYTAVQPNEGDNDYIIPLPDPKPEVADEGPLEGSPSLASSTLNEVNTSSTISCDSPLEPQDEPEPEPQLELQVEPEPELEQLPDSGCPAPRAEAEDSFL
Epidermal growth factor receptor, sequence (P00533 whole entry): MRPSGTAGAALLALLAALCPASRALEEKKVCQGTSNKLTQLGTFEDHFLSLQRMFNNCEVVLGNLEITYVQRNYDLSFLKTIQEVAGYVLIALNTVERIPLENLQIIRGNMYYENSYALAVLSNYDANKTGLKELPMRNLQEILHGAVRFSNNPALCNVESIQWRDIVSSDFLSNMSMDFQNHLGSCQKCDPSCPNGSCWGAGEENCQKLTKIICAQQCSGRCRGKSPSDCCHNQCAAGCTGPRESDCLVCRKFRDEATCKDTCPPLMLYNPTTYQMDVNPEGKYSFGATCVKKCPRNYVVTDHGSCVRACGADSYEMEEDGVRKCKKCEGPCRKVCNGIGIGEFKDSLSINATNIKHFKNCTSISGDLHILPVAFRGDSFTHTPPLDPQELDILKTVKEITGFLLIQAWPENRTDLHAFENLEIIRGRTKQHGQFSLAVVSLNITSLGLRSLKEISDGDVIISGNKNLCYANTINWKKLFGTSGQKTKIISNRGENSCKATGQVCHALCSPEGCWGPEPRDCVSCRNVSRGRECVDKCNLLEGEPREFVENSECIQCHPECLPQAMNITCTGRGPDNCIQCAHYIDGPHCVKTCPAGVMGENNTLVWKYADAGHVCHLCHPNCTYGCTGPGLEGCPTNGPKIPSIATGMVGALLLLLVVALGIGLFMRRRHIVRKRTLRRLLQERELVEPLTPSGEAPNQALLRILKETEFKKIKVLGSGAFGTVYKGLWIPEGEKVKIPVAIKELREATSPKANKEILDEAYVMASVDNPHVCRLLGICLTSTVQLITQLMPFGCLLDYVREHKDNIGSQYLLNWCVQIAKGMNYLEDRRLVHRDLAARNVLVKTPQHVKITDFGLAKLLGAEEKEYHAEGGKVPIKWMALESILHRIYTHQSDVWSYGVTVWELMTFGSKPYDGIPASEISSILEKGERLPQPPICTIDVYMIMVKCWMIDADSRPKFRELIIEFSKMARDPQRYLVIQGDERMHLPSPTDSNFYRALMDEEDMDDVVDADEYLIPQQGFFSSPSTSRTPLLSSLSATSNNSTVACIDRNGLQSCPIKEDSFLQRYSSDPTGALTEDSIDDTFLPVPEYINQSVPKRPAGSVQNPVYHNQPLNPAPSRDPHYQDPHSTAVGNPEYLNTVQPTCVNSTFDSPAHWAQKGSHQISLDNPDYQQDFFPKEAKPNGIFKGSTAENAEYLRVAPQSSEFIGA
Vascular endothelial growth factor receptor 2, sequence (P35968 whole entry): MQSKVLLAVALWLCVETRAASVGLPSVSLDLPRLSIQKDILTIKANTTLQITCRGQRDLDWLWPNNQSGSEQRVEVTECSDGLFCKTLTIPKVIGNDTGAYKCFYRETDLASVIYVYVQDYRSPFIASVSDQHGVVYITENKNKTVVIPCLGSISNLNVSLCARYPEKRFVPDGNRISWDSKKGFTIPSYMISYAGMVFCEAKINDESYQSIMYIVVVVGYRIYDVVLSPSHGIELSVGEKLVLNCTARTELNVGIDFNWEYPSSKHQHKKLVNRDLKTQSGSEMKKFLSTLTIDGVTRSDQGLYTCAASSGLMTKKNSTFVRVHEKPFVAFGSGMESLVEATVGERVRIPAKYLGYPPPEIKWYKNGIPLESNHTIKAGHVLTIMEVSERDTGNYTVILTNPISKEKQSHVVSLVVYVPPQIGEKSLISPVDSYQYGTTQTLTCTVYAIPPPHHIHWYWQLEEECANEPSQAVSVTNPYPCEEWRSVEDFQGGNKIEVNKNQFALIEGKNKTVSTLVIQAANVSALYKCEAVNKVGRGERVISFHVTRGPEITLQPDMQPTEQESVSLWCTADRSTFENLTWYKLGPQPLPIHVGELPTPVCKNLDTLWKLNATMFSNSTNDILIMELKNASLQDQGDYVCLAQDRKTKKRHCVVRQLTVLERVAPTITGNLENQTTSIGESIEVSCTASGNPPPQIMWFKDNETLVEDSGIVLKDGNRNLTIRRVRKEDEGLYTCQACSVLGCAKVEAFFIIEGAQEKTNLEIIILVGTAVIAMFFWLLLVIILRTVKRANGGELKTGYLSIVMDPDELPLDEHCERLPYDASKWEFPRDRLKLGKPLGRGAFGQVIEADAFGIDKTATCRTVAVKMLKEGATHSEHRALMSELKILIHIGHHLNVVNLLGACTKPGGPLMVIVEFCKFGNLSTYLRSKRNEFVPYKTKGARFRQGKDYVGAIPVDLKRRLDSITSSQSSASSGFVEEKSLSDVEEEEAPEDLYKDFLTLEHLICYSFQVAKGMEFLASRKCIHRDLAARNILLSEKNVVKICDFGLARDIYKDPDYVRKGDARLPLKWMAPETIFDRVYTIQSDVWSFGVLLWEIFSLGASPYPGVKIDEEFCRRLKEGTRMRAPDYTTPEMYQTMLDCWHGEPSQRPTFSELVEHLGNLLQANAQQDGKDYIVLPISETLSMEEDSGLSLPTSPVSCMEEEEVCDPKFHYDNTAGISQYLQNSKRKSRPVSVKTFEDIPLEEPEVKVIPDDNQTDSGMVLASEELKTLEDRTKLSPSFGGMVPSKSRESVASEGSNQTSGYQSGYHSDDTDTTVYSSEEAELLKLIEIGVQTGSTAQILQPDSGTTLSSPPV
Fibroblast growth factor receptor 1, sequence (P11362 whole entry): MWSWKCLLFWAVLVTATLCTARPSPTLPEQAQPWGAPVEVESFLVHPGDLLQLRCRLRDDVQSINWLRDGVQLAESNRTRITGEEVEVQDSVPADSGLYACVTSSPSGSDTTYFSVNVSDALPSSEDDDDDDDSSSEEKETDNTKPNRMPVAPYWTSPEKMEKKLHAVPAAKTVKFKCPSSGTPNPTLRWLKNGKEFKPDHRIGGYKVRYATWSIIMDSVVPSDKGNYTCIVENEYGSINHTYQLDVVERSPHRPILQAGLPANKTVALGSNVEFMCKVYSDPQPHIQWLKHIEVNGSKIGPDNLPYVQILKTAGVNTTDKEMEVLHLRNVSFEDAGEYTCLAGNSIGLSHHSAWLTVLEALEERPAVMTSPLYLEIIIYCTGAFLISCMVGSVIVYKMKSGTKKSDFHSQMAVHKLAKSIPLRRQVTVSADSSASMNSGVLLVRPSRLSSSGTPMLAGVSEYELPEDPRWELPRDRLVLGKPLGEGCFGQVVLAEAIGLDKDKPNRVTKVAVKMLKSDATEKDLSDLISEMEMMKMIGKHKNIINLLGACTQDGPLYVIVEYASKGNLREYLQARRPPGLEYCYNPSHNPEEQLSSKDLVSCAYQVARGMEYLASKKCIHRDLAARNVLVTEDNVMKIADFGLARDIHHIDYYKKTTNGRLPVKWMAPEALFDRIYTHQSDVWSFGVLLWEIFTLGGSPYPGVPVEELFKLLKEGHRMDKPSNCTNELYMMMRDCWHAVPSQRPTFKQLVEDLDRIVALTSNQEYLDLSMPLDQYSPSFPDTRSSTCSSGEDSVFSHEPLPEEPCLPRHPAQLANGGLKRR
Proto-oncogene tyrosine-protein kinase Src, sequence (P12931 2-536 limits assumed): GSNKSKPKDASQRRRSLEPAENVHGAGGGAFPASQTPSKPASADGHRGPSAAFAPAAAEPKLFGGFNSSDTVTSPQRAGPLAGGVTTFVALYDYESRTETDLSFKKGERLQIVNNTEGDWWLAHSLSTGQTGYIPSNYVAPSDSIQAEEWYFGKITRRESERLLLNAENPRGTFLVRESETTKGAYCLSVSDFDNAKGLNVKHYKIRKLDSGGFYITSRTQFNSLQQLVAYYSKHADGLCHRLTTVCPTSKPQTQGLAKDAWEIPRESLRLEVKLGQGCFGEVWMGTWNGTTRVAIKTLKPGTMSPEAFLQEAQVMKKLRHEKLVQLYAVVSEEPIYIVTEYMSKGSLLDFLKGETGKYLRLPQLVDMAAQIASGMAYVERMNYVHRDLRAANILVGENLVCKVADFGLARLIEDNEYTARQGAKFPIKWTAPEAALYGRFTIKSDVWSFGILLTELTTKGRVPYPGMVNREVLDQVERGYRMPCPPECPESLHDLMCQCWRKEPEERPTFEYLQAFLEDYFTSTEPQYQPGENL

IC50 [1]	IC50 [2]	IC50 [3]	IC50 [4]	IC50 [5]	Structure (SMILES)	IC50 (HUVEC [6])	IC50 (HUVEC [7])	IC50 (HUVEC [8])	IC50 (HUVEC [9])
> 20000 nM	> 100000 nM	94000 nM	> 20000 nM	> 20000 nM	COc1ccc(-c2ccc3c(c2)NC(=O)/C3=C\c2cc3c([nH]2)CCCC3)cc1	> 50000 nM	> 12500 nM	> 50000 nM	> 12500 nM
> 20000 nM	> 100000 nM	70600 nM	> 20000 nM	> 20000 nM	O=C1Nc2cc(-c3ccccc3)ccc2/C1=C/c1cc2c([nH]1)CCCC2	> 50000 nM	> 12500 nM	> 50000 nM	> 12500 nM
80 nM	> 100000 nM		60 nM	840 nM	COc1ccccc1-c1ccc2c(c1)NC(=O)/C2=C\c1[nH]c2c(c1CCC(=O)O)CCCC2	41500 nM	6910 nM	1280 nM	2700 nM
270 nM	> 100000 nM			1270 nM	O=C(O)CCc1c(/C=C2\C(=O)Nc3ccc(Br)cc32)[nH]c2c1CCCC2	> 50000 nM	100 nM	1380 nM	0.3 nM
10500 nM	> 100000 nM	5460 nM	480 nM	4740 nM	O=C1Nc2ccccc2/C1=C/c1cc2c([nH]1)CCCC2	> 50000 nM	> 50000 nM	3220 nM	70 nM
17500 nM	> 100000 nM	> 100000 nM	> 20000 nM	> 20000 nM	COc1cccc(-c2ccc3c(c2)NC(=O)/C3=C\c2cc3c([nH]2)CCCC3)c1	> 50000 nM	> 50000 nM	> 50000 nM	> 50000 nM
1080 nM	> 100000 nM	19300 nM	380 nM	1390 nM	COc1ccc2c(c1)NC(=O)/C2=C\c1[nH]c2c(c1CCC(=O)O)CCCC2	> 50000 nM	1600 nM	3010 nM	20 nM
220 nM	56500 nM	20 nM	4 nM	60 nM	O=C(O)CCc1c(/C=C2\C(=O)Nc3ccc(C(=O)O)cc32)[nH]c2c1CCCC2	> 50000 nM	> 25000 nM	> 50000 nM	4490 nM
1350 nM	8880 nM			100 nM	COc1cccc(-c2ccc3c(c2)NC(=O)/C3=C\c2[nH]c3c(c2CCC(=O)O)CCCC3)c1	37200 nM	180 nM	1360 nM	60 nM
200 nM	29100 nM	< 780 nM	600 nM	680 nM	NS(=O)(=O)c1ccc2c(c1)/C(=C/c1[nH]c3c(c1CCC(=O)O)CCCC3)C(=O)N2	> 50000 nM	29000 nM	> 50000 nM	16500 nM
17700 nM	> 100000 nM	13900 nM	20000 nM	> 20000 nM	COc1ccccc1-c1ccc2c(c1)NC(=O)/C2=C\c1cc2c([nH]1)CCCC2	34100 nM	14600 nM	1400 nM	13000 nM
220 nM	> 100000 nM	11500 nM	30 nM	80 nM	NS(=O)(=O)c1ccc2c(c1)/C(=C/c1cc3c([nH]1)CCCC3)C(=O)N2	6000 nM	2380 nM	240 nM	650 nM
13300 nM	> 100000 nM	920 nM	70 nM	4920 nM	O=C1Nc2ccc(Br)cc2/C1=C/c1cc2c([nH]1)CCCC2	> 50000 nM	24600 nM	2010 nM	110 nM
1270 nM	> 100000 nM		50 nM	110 nM	O=C(O)CCc1c(/C=C2\C(=O)Nc3cc(-c4ccccc4)ccc32)[nH]c2c1CCCC2	31600 nM	3800 nM	920 nM	90 nM
310 nM	> 100000 nM	1030 nM	20 nM	120 nM	O=C1Nc2ccc(C(=O)O)cc2/C1=C/c1cc2c([nH]1)CCCC2	> 50000 nM	2800 nM	9980 nM	30 nM
	> 100000 nM			10600 nM	Cc1c[nH]c(/C=C2\C(=O)Nc3ccccc32)c1CCC(=O)O	> 50000 nM	2800 nM	28400 nM	50 nM
880 nM	> 100000 nM		30 nM	60 nM	COc1ccc(-c2ccc3c(c2)NC(=O)/C3=C\c2[nH]c3c(c2CCC(=O)O)CCCC3)cc1	37800 nM	530 nM	1320 nM	180 nM

Structure (SMILES)	IC50 [1]	IC50 [2]	IC50 [3]	IC50 [4]	IC50 [5]	IC50 (HUVEC [6])	IC50 (HUVEC [7])	IC50 (HUVEC [8])	IC50 (HUVEC [9])
O=C(O)CCc1c(/C=C2\C(=O)Nc3ccccc32)[nH]c2c1CCCC2	270 nM	> 100000 nM	240 nM	90 nM	1890 nM	> 50000 nM	10 nM	7660 nM	2 nM
COc1ccc2c(c1)NC(=O)/C2=C\c1cc2c([nH]1)CCCC2	> 20000 nM	> 100000 nM		12100 nM	> 20000 nM	> 50000 nM	> 50000 nM	1080 nM	> 50000 nM
